Columns and labels:
[1] = tested on: S target cells (cultured lymphoblasts from SB cell line); assay: Generation of antigen-specific primary cytotoxic T lymphocytes, 51Cr release, target S; assay type: cell-based, human; settings: for % Specific Cytotoxicity: Exp. 2, C + Sx, no compound 26
Protocol: (§1) Peripheral blood mononuclear cells from healthy donor A and C were cultured together with irradiated (3000 R) peripheral blood mononuclear cells from donor B and irradiated cells (SX) from B cells of the SB cell line, respectively, for five days. At the end of the incubation period, the cells were washed and resuspended in medium and then their cytotoxic activity was determined against the specific lymphoblast target cell B or S according to the procedure of Sharma and Gupta noted above.

[2] = tested on: human lymphocytes (peripheral blood mononuclear cells); assay: Mitogenic activity (3H-thymidine incorporation); assay type: cell-based
Protocol: (§2) Peripheral blood mononuclear cells were isolated from heparinized peripheral blood of normal healthy donors as described in Sharma, B. and S. Gupta, "Antigen-specific primary cytotoxic T lymphocyte response in acquired immune deficiency syndrome (AIDS) and AIDS related complex", Clin. Exp. Immunol., 62:296, 1985. Briefly, blood was diluted 1:1 with Hanks balanced salt solution (HBSS). Peripheral blood mononuclear cells were separated on a Ficoll-Hypaque gradient. The peripheral blood mononuclear cells recovered from the interface were washed three times with HBSS and resuspended in RPMI-1640 containing 100 U/ml penicillin, 100 μg/ml streptomycin 2mM L-glutamine (GIBCO, Grand Island, N.Y.), and 10% heat-inactivated pooled A serum (Irvine Scientific, Irvine, Calif.), hereafter referred as complete medium (CM).
The ability of 6-amino-(2-deoxy-α-D-erythro-pentofuranosyl)-imidazo[4,5,-C]pyridin- 4-one to activate lymphocytes was determined by culturing the cells with and without this compound. Peripheral blood mononuclear cells (1×10^5 /0.2 ml) were cultures in 96 well microtiter plates (Corning, N.Y.) for 72-96 hrs at 37° C. in 5% CO2 humid atmosphere and then for an additional 16 hr in the presence of 1 μCi/well [^3 H] thymidine (ICN Pharmaceuticals, Inc., Irvine, Calif.). Cells were harvested on glass fiber filter paper using a cell harvester (Skatron, Lier, Norway). The radioactivity was measured in a scintillation counter after suspending the dried filter in scintillation fluid.
To determine whether 6-amino-(2-deoxy-α-D-erythro-pentofuranosyl)-imidazo[4,5,-C]pyridin- 4-one directly activates lymphocytes to proliferate, peripheral blood mononuclear cells were cultured with or without this compound as described in the above methods section.

[3] = tested on: B target cells (PHA induced lymphoblasts of donor B); assay: Generation of antigen-specific primary cytotoxic T lymphocytes, 51Cr release, target B; assay type: cell-based, human; settings: for % Specific Cytotoxicity: Exp. 1, A + Bx, no compound 7
Protocol: as §1

[4] = tested on: T lymphocytes (peripheral blood mononuclear cells); assay: Cyclosporin A induced suppression of lymphocyte response to phytohemagglutinin / T cell mitogens, and its restoration; assay type: cell-based, human
Protocol: as §2
Cultures were pulsed for 16 hr and [^3 H]-thymidine incorporation was measured.
Peripheral blood mononuclear cells from normal donors were incubated with T cell mitogens in the presence and absence of this compound and then [^3 H-thymidine incorporation was measured.
Peripheral blood mononuclear cells were cultured with phytohemagglutinin in the presence of CsA (10 and 50 ng/0.2 ml) and 6-amino-(2-deoxy-α-D-erythro-pentofuranosyl)-imidazo[4,5,-C]pyridin- 4-one. Lymphocytes proliferation was determined by ^3 H-thymidine incorporation.

[5] = Revankar et al. 1984; cited from earlier work
[6] = Revankar et al. 1984; cited from earlier work; remark: listed apart in the source

Nc1cc2c(ncn2[C@@H]2C[C@H](O)[C@@H](CO)O2)c(O)n1 [Test Compound, 6-amino-1-(2-deoxy-α-D-erythro-pentofuranosyl)imidazo[4,5-C]-pyridin-4-one]
% Specific Cytotoxicity ([1]; compound (0.006)): 42%
% Specific Cytotoxicity ([1]; compound (0.025)): 36%
% Specific Cytotoxicity ([1]; compound (0.1)): 53%
cytotoxic T lymphocyte activity ([1]; cultured lymphoblasts from the SB cell (leukemic) line): increased
increase in the proliferation of peripheral blood mononuclear cells ([2]; 0.006 mM to 0.4 mM, several donors): no significant increase
stimulation of lymphocytes to proliferate ([2]; 1 mM): failed to stimulate lymphocytes to proliferate
direct stimulation of lymphocytes to proliferate ([2]; by itself): unable to directly stimulate lymphocytes to proliferate
3H-thymidine incorporation ([2]; donor 1, 0.006 mM): 212 ± 96 Counts per minute
3H-thymidine incorporation ([2]; donor 1, 0.025 mM): 494 ± 267 Counts per minute
3H-thymidine incorporation ([2]; donor 1, 0.050 mM): 306 ± 106 Counts per minute
3H-thymidine incorporation ([2]; donor 1, 0.2 mM): 246 ± 99 Counts per minute
3H-thymidine incorporation ([2]; donor 1, 0.4 mM): 320 ± 46 Counts per minute
3H-thymidine incorporation ([2]; donor 2, 0.006 mM): 262 ± 68 Counts per minute
3H-thymidine incorporation ([2]; donor 2, 0.025 mM): 273 ± 122 Counts per minute
3H-thymidine incorporation ([2]; donor 2, 0.050 mM): 257 ± 67 Counts per minute
3H-thymidine incorporation ([2]; donor 3, 0.006 mM): 266 ± 42 Counts per minute
3H-thymidine incorporation ([2]; donor 3, 0.025 mM): 252 ± 112 Counts per minute
3H-thymidine incorporation ([2]; donor 3, 0.050 mM): 180 ± 37 Counts per minute
3H-thymidine incorporation ([2]; donor 4, 0.006 mM): 246 ± 61 Counts per minute
3H-thymidine incorporation ([2]; donor 4, 0.025 mM): 237 ± 55 Counts per minute
3H-thymidine incorporation ([2]; donor 4, 0.050 mM): 240 ± 35 Counts per minute
3H-thymidine incorporation ([2]; donor 5, 0.006 mM): 238 ± 63 Counts per minute
3H-thymidine incorporation ([2]; donor 5, 0.025 mM): 121 ± 55 Counts per minute
3H-thymidine incorporation ([2]; donor 5, 0.050 mM): 841 ± 310 Counts per minute
3H-thymidine incorporation ([2]; donor 5, 0.2 mM): 277 ± 51 Counts per minute
3H-thymidine incorporation ([2]; donor 5, 0.4 mM): 165 ± 64 Counts per minute
3H-thymidine incorporation ([2]; donor 6, 0.006 mM): 486 ± 51 Counts per minute
3H-thymidine incorporation ([2]; donor 6, 0.025 mM): 508 ± 140 Counts per minute
3H-thymidine incorporation ([2]; donor 6, 0.050 mM): 650 ± 130 Counts per minute
3H-thymidine incorporation ([2]; donor 6, 0.2 mM): 620 ± 322 Counts per minute
3H-thymidine incorporation ([2]; donor 6, 0.4 mM): 395 ± 22 Counts per minute
3H-thymidine incorporation ([2]; donor 7, 0.006 mM): 1133 ± 257 Counts per minute
3H-thymidine incorporation ([2]; donor 7, 0.025 mM): 1667 ± 254 Counts per minute
3H-thymidine incorporation ([2]; donor 7, 0.050 mM): 772 ± 137 Counts per minute
3H-thymidine incorporation ([2]; donor 7, 0.2 mM): 657 ± 137 Counts per minute
3H-thymidine incorporation ([2]; donor 7, 0.4 mM): 702 ± 189 Counts per minute
% Specific Cytotoxicity ([3]; compound (0.05)): 9%
% Specific Cytotoxicity ([3]; compound (0.1)): 22%
% Specific Cytotoxicity ([3]; compound (0.2)): 26%
cytotoxic T lymphocyte activity ([3]; specific fresh phytohemagglutinin induced lymphoblasts): increased
T cell proliferative response after addition of compound ([4]; FIG. 3, PHA + Cyclosporin A + compound): 43,000 CPM
reversal of cyclosporin mediated suppression (partial) ([4]; magnitude of cyclosporin mediated suppression higher, T cell mitogens): over 50%
restoration of lymphocyte proliferation ([4]; suppression about half of the total response, mitogen not stated): completely restored the lymphocyte proliferation
reconstitution of immune response ([4]; suppression low, lower concentration of cyclosporin, T cell mitogens): essentially complete
antitumor activity [5]: devoid of any useful antitumor activity
in vitro antiviral activity [6]: limited in vitro antiviral activity

From patent US4950647A, “T cell immunopotentiator” (Nucleic Acid Research Institute, priority 1988, dated 1990)
